Assay results as given in patent US12653814B2, “Benzimidazolone-based cinnamamide derivative as TRPV1 antagonist and pharmaceutical composition for treatment or prevention of pain containing same as active ingredient” (JMACKEM CO., LTD, priority 2020, dated 2026).

Assays:
[1] = molecular target: T1, human TRPV1 (hTRPV1) (Homo sapiens, UniProt Q8NER1); assay: Ca2+ influx assay, antagonism against capsaicin in hTRPV1-HEK recombinant cells; assay type: cell-based; settings: capsaicin 10 nM as activator, Fluo4-NW fluorescence, read-out: hTRPV1 IC50 [cap]
T1 construct: host or cells: HEK (PrecisION hTRPV1-HEK recombinant cell line)

[2] = molecular target: T1, human TRPV1 (hTRPV1); assay: Evaluation of human pH inhibitory activity in hTRPV1-HEK recombinant cells; assay type: cell-based; settings: inhibition of activation at final pH 6.0, test substance 3 μM
Protocol: Evaluation of Human pH Inhibitory Activity
PrecisION™ hTRPV1-HEK recombinant cells (CYL3063) were purchased from Millipore and used. After culturing the above cells under the conditions of 37° C. and 5% CO2, the cells were inoculated in a 96-well plate at the density of 5×10^4 cells/well, followed by culture for 16 hours. Then, the medium was removed and 100 uL of a staining solution was put into each well, followed by culture for 30 minutes under the conditions of 37° C. and 5% CO2. After 30 minutes, all of the existing staining solution was removed and replaced with 100 uL of HBSS. Thereafter, the cells were acclimatized to room temperature for 15 minutes, and the test substances (example compounds and comparative example compounds of the present invention) were added to each well, followed by culture at room temperature for 15 minutes. Then, the final pH was adjusted to 6.0 using MES, and fluorescence was measured (ex485/em535). In the pH assay, the efficacy of the drug was evaluated using BCTC as a TRPV1 antagonist.

T1 sequence (Q8NER1 whole entry): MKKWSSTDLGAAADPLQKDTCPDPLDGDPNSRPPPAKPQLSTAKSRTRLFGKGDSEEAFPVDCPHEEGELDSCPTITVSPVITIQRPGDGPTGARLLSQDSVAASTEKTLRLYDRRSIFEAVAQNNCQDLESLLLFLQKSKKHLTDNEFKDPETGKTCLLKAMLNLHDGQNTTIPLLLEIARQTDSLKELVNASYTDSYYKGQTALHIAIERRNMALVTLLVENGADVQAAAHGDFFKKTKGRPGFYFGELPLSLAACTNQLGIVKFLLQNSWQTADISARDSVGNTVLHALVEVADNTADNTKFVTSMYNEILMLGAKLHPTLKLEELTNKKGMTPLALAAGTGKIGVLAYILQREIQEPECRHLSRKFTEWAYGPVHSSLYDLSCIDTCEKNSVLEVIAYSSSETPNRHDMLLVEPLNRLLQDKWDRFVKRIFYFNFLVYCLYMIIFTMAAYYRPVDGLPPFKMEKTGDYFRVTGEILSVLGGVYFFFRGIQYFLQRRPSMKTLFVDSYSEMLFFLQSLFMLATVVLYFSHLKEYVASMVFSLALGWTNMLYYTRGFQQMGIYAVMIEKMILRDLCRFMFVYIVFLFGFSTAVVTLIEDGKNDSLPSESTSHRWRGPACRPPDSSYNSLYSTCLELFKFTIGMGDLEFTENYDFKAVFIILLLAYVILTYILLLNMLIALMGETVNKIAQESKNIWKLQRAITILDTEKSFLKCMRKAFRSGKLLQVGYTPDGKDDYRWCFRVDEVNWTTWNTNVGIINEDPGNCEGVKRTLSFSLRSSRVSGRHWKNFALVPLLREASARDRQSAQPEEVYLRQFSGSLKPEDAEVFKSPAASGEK

| Compound | IC50 [1] [nM] | hTRPV1 pH (%, 3 μM) [2] [%] |
| --- | --- | --- |
| CC(C)c1cc(/C=C/C(=O)Nc2cccc3[nH]c(=O)[nH]c23)n(-c2cccc(Cl)c2)n1 [Example 51, (E)-3-(1-(3-chlorophenyl)-3-isopropyl-1H-pyrazol-5-yl)-N-(2-oxo-2,3-dihydro-1H-benzo[d]imidazol-4-yl)acrylamide] | > 160 |  |
| CC(C)COc1cc(C(F)(F)F)ccc1/C=C/C(=O)Nc1cccc2[nH]c(=O)[nH]c12 [Example 42, (E)-3-(2-isobutoxy-4-(trifluoromethyl)phenyl)-N-(2-oxo-2,3-dihydro-1H-benzo[d]imidazol-4-yl)acrylamide] | 35.4 | 78.89 |
| O=C(/C=C/c1sc(C(F)(F)F)nc1-c1cccc(Cl)c1)Nc1cccc2[nH]c(=O)[nH]c12 [Example 54, (E)-3-(4-(3-chlorophenyl)-2-(trifluoromethyl)thiazol-5-yl)-N-(2-oxo-2,3-dihydro-1H-benzo[d]imidazol-4-yl)acrylamide] | 55.7 | 63.44 |
| O=C(/C=C/c1ccc(C(F)(F)F)nc1SC1CCCCC1)Nc1cccc2[nH]c(=O)[nH]c12 [Example 29, (E)-3-(2-(cyclohexylthio)-6-(trifluoromethyl)pyridin-3-yl)-N-(2-oxo-2,3-dihydro-1H-benzo[d]imidazol-4-yl)acrylamide] | > 100 |  |
| O=C(/C=C/c1ccc(C2CC2)cc1OCC1CC1)Nc1cccc2[nH]c(=O)[nH]c12 [Example 46, (E)-3-(4-cyclopropyl-2-(cyclopropylmethoxy)phenyl)-N-(2-oxo-2,3-dihydro-1H-benzo[d]imidazol-4-yl)acrylamide] | 72.9 | 57.38 |
| CC1(c2cc(/C=C/C(=O)Nc3cccc4[nH]c(=O)[nH]c34)n(-c3cccc(Cl)c3)n2)CC1 [Example 52, (E)-3-(1-(3-chlorophenyl)-3-(1-methylcyclopropyl)-1H-pyrazol-5-yl)-N-(2-oxo-2,3-dihydro-1H-benzo[d]imidazol-4-yl)acrylamide] | > 160 |  |
| CC(C)(C)c1cc(/C=C/C(=O)Nc2cccc3[nH]c(=O)[nH]c23)n(-c2cccc(Cl)c2)n1 [Example 53, (E)-3-(3-(tert-butyl)-1-(3-chlorophenyl)-1H-pyrazol-5-yl)-N-(2-oxo-2,3-dihydro-1H-benzo[d]imidazol-4-yl)acrylamide] | 79.8 | 78.21 |
| CCCCOc1nc(C(F)(F)F)ccc1/C=C/C(=O)Nc1cccc2[nH]c(=O)[nH]c12 [Example 8, (E)-3-(2-butoxy-6-(trifluoromethyl)pyridin-3-yl)-N-(2-oxo-2,3-dihydro-1H-benzo[d]imidazol-4-yl)acrylamide] | 27.3 | 81.24 |
| CCC1CCN(c2nc(C(F)(F)F)ccc2/C=C/C(=O)Nc2cccc3[nH]c(=O)[nH]c23)CC1 [Example 2, (E)-3-(2-(4-ethylpiperidin-1-yl)-6-(trifluoromethyl)pyridin-3-yl)-N-(2-oxo-2,3-dihydro-1H-benzo[d]imidazol-4-yl)acrylamide] | 28.8 | 86.72 |
| CC1(c2nc(-c3cccc(Cl)c3)c(/C=C/C(=O)Nc3cccc4[nH]c(=O)[nH]c34)s2)CC1 [Example 57, (E)-3-(4-(3-chlorophenyl)-2-(1-methylcyclopropyl)thiazol-5-yl)-N-(2-oxo-2,3-dihydro-1H-benzo[d]imidazol-4-yl)acrylamide] | 39.8 | 61.78 |
| CC(C)(C)c1cc(C2CC2C(=O)Nc2cccc3[nH]c(=O)[nH]c23)n(-c2cccc(Cl)c2)n1 (centres unmarked) [Example 68, 2-(3-(tert-butyl)-1-(3-chlorophenyl)-1H-pyrazol-5-yl)-N-(2-oxo-2,3-dihydro-1H-benzo[d]imidazol-4-yl)cyclopropane-1-carboxamide] | 139 |  |
| CC1(c2cc(C3CC3C(=O)Nc3cccc4[nH]c(=O)[nH]c34)n(-c3cccc(Cl)c3)n2)CC1 (centres unmarked) [Example 67, 2-(1-(3-chlorophenyl)-3-(1-methylcyclopropyl)-1H-pyrazol-5-yl)-N-(2-oxo-2,3-dihydro-1H-benzo[d]imidazol-4-yl)cyclopropane-1-carboxamide] | > 160 |  |
| CC(C)c1cc(C2CC2C(=O)Nc2cccc3[nH]c(=O)[nH]c23)n(-c2cccc(Cl)c2)n1 (centres unmarked) [Example 65, 2-(1-(3-chlorophonyl)-3-isopropyl-1H-pyrazol-5-yl)-N-(2-oxo-2,3-dihydro-1H-benzo[d]imidazol-4-yl)cyclopropane-1-carboxamide] | > 160 |  |
| O=C(/C=C/c1ccc(C(F)(F)F)nc1SCC1CC1)Nc1cccc2[nH]c(=O)[nH]c12 [Example 28, (E)-3-(2-((cyclopropylmethyl)thio)-6-(trifluoromethyl)pyridin-3-yl)-N-(2-oxo-2,3-dihydro-1H-benzo[d]imidazol-4-yl)acrylamide] | > 100 |  |
| CC(F)(F)c1cc(C2CC2C(=O)Nc2cccc3[nH]c(=O)[nH]c23)n(-c2cccc(Cl)c2)n1 (centres unmarked) [Example 64, 2-(1-(3-chlorophenyl)-3-(1,1-difluoroethyl)-1H-pyrazol-5-yl)-N-(2-oxo-2,3-dihydro-1H-benzo[d]imidazol-4-yl)cyclopropane-1-carboxamide] | > 160 |  |
| O=C(Nc1cccc2[nH]c(=O)[nH]c12)C1CC1c1cc(C2CC2)nn1-c1cccc(Cl)c1 (centres unmarked) [Example 66, 2-(1-(3-chlorophenyl)-3-cyclopropyl-1H-pyrazol-5-yl)-N-(2-oxo-2,3-dihydro-1H-benzo[d]imidazol-4-yl)cyclopropane-1-carboxamide] | > 160 |  |

Second part, the molecule after the results:

| IC50 [1] [nM] | hTRPV1 pH (%, 3 μM) [2] [%] | Compound |
| --- | --- | --- |
| 123 |  | O=C(/C=C/c1ccc(C(F)(F)F)nc1C1CCCC1)Nc1cccc2[nH]c(=O)[nH]c12 [Example 41, (E)-3-(2-cyclopentyl-6-(trifluoromethyl)pyridin-3-yl)-N-(2-oxo-2,3-dihydro-1H-benzo[d]imidazol-4-yl)acrylamide] |
| 14.2 | 48.62 | O=C(/C=C/c1ccc(C(F)(F)F)nc1-c1cccc(F)c1)Nc1cccc2[nH]c(=O)[nH]c12 [Example 30, (E)-3-(2-(3-fluorophenyl)-6-(trifluoromethyl)pyridin-3-yl)-N-(2-oxo-2,3-dihydro-1H-benzo[d]imidazol-4-yl)acrylamide] |
| 15.9 | 37.26 | O=C(/C=C/c1cc(C(F)(F)F)nn1-c1cccc(Cl)c1)Nc1cccc2[nH]c(=O)[nH]c12 [Example 47, (E)-3-(1-(3-chlorophenyl)-3-(trifluoromethyl)-1H-pyrazol-5-yl)-N-(2-oxo-2,3-dihydro-1H-benzo[d]imidazol-4-yl)acrylamide] |
| 178 |  | CC(C)(C)CCc1nc(C(F)(F)F)ccc1/C=C/C(=O)Nc1cccc2[nH]c(=O)[nH]c12 [Example 40, (E)-3-(2-(3,3-dimethylbutyl)-6-(trifluoromethyl)pyridin-3-yl)-N-(2-oxo-2,3-dihydro-1H-benzo[d]imidazol-4-yl)acrylamide] |
| 202 |  | CC(C)(C)COc1nc(C(F)(F)F)ccc1/C=C/C(=O)Nc1cccc2[nH]c(=O)[nH]c12 [Example 15, (E)-3-(2-(neopentyloxy)-6-(trifluoromethyl)pyridin-3-yl)-N-(2-oxo-2,3-dihydro-1H-benzo[d]imidazol-4-yl)acrylamide] |
| 117 |  | O=C(/C=C/c1ccc(C2CC2)nc1OCC1CC1)Nc1cccc2[nH]c(=O)[nH]c12 [Example 18, (E)-3-(6-cyclopropyl-2-(cyclopropylmethoxy)pyridin-3-yl)-N-(2-oxo-2,3-dihydro-1H-benzo[d]imidazol-4-yl)acrylamide] |
| 79.3 | 48.71 | CC(C)(C)c1ccc(/C=C/C(=O)Nc2cccc3[nH]c(=O)[nH]c23)c(OCC2CC2)c1 [Example 45, (E)-3-(4-(tert-butyl)-2-(cyclopropylmethoxy)phenyl)-N-(2-oxo-2,3-dihydro-1H-benzo[d]imidazol-4-yl)acrylamide] |
| 217 |  | CC(C)(C)c1ccc(/C=C/C(=O)Nc2cccc3[nH]c(=O)[nH]c23)c(OCC2CC2)n1 [Example 23, (E)-3-(6-(tert-butyl)-2-(cyclopropylmethoxy)pyridin-3-yl)-N-(2-oxo-2,3-dihydro-1H-benzo[d]imidazol-4-yl)acrylamide] |
| > 50 |  | CCCCCCOc1nc(C(F)(F)F)ccc1/C=C/C(=O)Nc1cccc2[nH]c(=O)[nH]c12 [Example 9, (E)-3-(2-(hexyloxy)-6-(trifluoromethyl)pyridin-3-yl)-N-(2-oxo-2,3-dihydro-1H-benzo[d]imidazol-4-yl)acrylamide] |
| > 160 |  | CC(C)c1nc(-c2cccc(Cl)c2)c(/C=C/C(=O)Nc2cccc3[nH]c(=O)[nH]c23)s1 [Example 55, (E)-3-(4-(3-chlorophenyl)-2-isopropylthiazol-5-yl)-N-(2-oxo-2,3-dihydro-1H-benzo[d]imidazol-4-yl)acrylamide] |
| 103 |  | CC(C)(C)c1nc(-c2cccc(Cl)c2)c(/C=C/C(=O)Nc2cccc3[nH]c(=O)[nH]c23)s1 [Example 58, (E)-3-(2-(tert-butyl)-4-(3-chlorophenyl)thiazol-5-yl)-N-(2-oxo-2,3-dihydro-1H-benzo[d]imidazol-4-yl)acrylamide] |
| 410 |  | CC(C)c1ccc(/C=C/C(=O)Nc2cccc3[nH]c(=O)[nH]c23)c(OCC2CC2)n1 [Example 19, (E)-3-(2-(cyclopropylmethoxy)-6-isopropylpyridin-3-yl)-N-(2-oxo-2,3-dihydro-1H-benzo[d]imidazol-4-yl)acrylamide] |
